From ChEMBL document CHEMBL1201862, “PubChem BioAssay data set” (2004)
The source made the active and inactive calls.

Columns and labels:
[1] = target: T1, RNA-binding protein pos-1 (Caenorhabditis elegans, UniProt G5EF15); assay: disruptors of C. elegans POS-1 RNA interaction – biochemical, fluorescence polarization, dose response (AID 1964);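 note: purified POS-1 fused to maltose binding protein made in E. coli; potency of compounds blocking POS-1 binding to fluorescent RNA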
T1 sequence (G5EF15 whole entry): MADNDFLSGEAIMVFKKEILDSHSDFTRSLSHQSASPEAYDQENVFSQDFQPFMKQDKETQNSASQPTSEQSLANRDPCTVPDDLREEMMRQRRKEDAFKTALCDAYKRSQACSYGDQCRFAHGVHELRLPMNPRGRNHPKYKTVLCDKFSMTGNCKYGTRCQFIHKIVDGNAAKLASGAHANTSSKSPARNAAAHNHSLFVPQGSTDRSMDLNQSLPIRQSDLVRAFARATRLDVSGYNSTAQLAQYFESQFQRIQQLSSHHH

[2] = target: T2, Zinc finger protein mex-5 (Caenorhabditis elegans, UniProt Q9XUB2); assay: potency of MEX-5 RNA-binding blockers – biochemical, C. elegans, fluorescence polarization, dose response (AID 1960)
T2 sequence (Q9XUB2 whole entry): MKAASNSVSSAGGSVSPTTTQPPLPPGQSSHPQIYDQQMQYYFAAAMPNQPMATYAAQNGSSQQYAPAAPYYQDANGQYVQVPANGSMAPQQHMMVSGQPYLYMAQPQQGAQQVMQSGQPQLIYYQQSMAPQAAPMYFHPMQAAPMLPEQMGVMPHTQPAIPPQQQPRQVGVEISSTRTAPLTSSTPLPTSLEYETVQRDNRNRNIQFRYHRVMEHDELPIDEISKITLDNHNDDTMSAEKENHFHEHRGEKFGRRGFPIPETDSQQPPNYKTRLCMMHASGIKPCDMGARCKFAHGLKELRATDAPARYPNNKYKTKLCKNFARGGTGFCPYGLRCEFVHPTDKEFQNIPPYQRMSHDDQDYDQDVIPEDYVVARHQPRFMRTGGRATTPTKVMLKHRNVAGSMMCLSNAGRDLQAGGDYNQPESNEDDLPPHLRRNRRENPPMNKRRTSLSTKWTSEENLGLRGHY

[3] = target: T3, Streptokinase A (Streptococcus pyogenes serotype M1, UniProt P10520); assay: viability-normalized secreted streptokinase activity reduction – plasminogen activation absorbance, OD405, dose response (AID 1914); type: functional, Streptococcus pyogenes M1 GAS;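 note: secreted streptokinase activity via plasminogen activation per viability signal from cell pellet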
T3 sequence (P10520 whole entry): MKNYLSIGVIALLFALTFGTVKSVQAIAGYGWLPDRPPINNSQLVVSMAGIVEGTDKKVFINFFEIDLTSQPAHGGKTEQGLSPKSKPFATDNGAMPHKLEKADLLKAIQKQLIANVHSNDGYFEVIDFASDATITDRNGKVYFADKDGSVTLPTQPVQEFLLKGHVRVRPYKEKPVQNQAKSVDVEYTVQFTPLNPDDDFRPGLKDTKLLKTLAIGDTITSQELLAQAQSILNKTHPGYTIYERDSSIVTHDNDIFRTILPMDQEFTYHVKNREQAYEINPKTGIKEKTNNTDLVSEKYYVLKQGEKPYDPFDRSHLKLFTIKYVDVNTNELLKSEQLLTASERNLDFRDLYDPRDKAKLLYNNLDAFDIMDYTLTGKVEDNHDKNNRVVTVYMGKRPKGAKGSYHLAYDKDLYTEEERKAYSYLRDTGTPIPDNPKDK

[4] = test system: Streptococcus sp. 'group A'; assay: Streptococcus pyogenes SK(-)GAS viability under kanamycin – luminescence, BacTiterGlo, confirmation, counter-screen for streptokinase expression inhibitor project, dose response (AID 1900); type: functional, organism-based
[5] = test system: Streptococcus; assay: GAS UMAA2166 growth inhibition – luminescence, BacTiterGlo, counter-screen for streptokinase expression inhibitor project, dose response (AID 1915); type: functional, organism-based;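 note: potency for reduction of bacterial viability or growth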
[6] = target: Luciferin 4-monooxygenase (Photinus pyralis, UniProt P08659); assay: inhibition of purified Photinus pyralis luciferase – biochemical, luminescence, dose response (AID 1891)
Luciferin 4-monooxygenase, sequence (P08659 whole entry): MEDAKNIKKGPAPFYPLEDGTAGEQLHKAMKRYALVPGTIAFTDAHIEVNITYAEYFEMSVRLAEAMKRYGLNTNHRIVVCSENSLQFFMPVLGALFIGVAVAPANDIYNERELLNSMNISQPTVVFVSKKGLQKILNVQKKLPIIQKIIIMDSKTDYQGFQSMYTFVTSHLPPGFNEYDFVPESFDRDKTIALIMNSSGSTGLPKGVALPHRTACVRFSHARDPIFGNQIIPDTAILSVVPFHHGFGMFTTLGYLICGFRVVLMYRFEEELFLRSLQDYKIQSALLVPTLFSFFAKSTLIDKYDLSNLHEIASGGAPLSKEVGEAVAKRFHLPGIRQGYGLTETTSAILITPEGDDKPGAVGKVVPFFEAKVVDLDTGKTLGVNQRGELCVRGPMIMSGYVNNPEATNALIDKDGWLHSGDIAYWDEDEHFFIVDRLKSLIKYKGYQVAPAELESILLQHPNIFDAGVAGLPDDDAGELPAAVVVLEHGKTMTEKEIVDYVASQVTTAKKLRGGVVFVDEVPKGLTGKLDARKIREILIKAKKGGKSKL

[7] = Luminescence Cell-Based Dose Confirmation HTS to Identify Inhibitors of Platelet Dense Granule Release. [Related pubchem assays: 1663 (Primary HTS), 1678 (Summary of Project)]; type: functional
[8] = target: Cytochrome P450 2C9 (Homo sapiens, UniProt P11712)
Cytochrome P450 2C9, sequence (P11712 whole entry): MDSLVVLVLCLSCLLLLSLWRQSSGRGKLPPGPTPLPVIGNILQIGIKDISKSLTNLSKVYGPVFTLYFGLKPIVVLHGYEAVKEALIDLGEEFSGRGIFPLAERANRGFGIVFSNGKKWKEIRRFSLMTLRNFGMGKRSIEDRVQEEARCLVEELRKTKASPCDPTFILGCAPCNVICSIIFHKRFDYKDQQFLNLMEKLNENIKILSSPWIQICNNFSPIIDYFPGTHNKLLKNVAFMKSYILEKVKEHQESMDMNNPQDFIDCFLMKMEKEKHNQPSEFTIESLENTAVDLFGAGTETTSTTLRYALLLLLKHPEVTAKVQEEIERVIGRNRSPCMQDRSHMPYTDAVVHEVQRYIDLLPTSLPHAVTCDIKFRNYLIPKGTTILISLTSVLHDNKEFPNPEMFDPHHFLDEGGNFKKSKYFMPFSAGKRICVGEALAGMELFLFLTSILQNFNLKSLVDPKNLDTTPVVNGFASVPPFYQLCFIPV

[9] = Luminescence Cell-Based Dose Response HTS to Identify Inhibitors of 5'UTR Stem-Loop Driven Prion Protein mRNA Translation in H4 Neuroglioblastoma Cells. [Related pubchem assays: 1827 (Project Summary), 1813 (Primary HTS)]; type: functional
[10] = alpha-synuclein stem-loop luciferase translation blockers – H4 neuroglioma cells, luminescence, confirmation (AID 1988); type: functional, cell-based
[11] = luciferase reporter signal suppression in cells – H4 neuroglioma cells, luminescence, dose response (AID 1990); type: functional, cell-based
[12] = test system: INS1; assay: INS-1E survival protection against cytokine death – cell-based, luminescence, retest, dose response (AID 449756); type: functional; conditions: Rattus norvegicus;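 note: cell death triggered by IL-1 beta plus TNF-alpha plus IFN-gamma mixture; protective hits raise ATP signal compared with cytokine alone wells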
[13] = target: T4, Cytochrome P450 1A2 (Homo sapiens, UniProt P05177);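 note: PubChem cytochrome P450 panel assay, CYP1A2 panel member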
T4 sequence (P05177 whole entry): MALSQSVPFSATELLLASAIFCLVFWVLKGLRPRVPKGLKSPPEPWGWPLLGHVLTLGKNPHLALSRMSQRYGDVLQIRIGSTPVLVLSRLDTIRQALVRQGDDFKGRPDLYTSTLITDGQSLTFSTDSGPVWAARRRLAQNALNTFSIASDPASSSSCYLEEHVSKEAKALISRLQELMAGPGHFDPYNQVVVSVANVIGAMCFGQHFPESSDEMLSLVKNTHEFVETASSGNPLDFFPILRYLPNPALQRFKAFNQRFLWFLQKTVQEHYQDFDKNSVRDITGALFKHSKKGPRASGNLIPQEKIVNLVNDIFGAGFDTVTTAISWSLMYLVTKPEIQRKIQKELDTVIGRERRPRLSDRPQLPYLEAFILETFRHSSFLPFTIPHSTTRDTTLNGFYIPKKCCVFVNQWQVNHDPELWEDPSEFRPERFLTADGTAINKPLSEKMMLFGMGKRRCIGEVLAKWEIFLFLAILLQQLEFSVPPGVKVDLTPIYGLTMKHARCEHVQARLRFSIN

[14] = target: Cytochrome P450 2D6 (Homo sapiens, UniProt P10635);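 note: CYP2D6 member of a cytochrome P450 panel assay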
Cytochrome P450 2D6, sequence (P10635 whole entry): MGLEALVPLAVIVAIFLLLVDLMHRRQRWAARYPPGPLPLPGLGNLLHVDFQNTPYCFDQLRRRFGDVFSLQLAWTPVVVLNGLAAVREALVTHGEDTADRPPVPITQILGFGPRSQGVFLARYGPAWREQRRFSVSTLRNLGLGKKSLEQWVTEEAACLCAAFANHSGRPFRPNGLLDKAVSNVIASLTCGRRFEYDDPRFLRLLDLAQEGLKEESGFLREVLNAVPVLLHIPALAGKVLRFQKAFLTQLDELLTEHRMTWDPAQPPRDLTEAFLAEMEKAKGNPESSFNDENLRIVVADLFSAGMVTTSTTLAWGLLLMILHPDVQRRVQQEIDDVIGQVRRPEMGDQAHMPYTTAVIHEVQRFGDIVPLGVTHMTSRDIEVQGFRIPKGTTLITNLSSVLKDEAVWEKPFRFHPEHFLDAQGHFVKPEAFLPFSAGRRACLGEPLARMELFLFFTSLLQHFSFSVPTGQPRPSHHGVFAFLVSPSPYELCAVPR

[15] = target: Cytochrome P450 2C19 (Homo sapiens, UniProt P33261); assay: Cytochrome panel assay with activity outcomes. Panel member name: p450-cyp2c19 Compounds with AC50 equal or less than 10 uM are considered active; type: functional; conditions: read-out: AC50
Cytochrome P450 2C19, sequence (P33261 whole entry): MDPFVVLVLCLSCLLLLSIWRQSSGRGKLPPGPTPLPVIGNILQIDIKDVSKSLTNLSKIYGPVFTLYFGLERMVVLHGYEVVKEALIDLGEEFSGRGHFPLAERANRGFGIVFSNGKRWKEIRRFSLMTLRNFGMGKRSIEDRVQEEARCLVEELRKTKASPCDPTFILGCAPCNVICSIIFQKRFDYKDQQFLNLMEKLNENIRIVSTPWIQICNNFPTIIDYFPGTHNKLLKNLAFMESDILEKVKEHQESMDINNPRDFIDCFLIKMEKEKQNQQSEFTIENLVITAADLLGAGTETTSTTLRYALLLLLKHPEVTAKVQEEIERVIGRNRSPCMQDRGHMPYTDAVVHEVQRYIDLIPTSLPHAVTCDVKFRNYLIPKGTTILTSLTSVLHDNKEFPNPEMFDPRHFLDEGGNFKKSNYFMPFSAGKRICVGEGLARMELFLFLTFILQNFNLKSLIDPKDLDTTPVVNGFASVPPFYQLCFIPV

Cc1cc(/C=C2\C(=O)NC(=O)N(c3ccc(Cl)cc3)C2=O)c(C)n1C
EC50 [1]: 63.5 µM (active)

Cc1ccc(C(=O)C2=C(O)C(=O)N(Cc3ccco3)C2c2ccc(N(C)C)cc2)o1 (stereo not drawn)
EC50 [1]: > 300 µM (not active)
EC50 [2]: > 300 µM (not active)

CC(Oc1ccc(F)cc1)C(=O)Nc1ccccc1N1CCCCC1 (stereo not drawn)
EC50 [3]: 10.3 µM (active)
EC50 [4]: 11.8 µM (active)
EC50 [5]: 19.9 µM (active)
EC50 [6]: 27.3 µM (active)
EC50 [7]: 21 µM (active)

COc1cc(CNCc2cccs2)cc(Br)c1OC
AC50 [8]: 1.41 µM (inconclusive)

O=c1c(CCc2ccccc2)nc2cnc(Nc3ccccc3)nc2n1C[C@H]1CCCO1
AC50 [8]: 20 µM (inconclusive)

COC(=O)c1cc(NC(=O)c2c(Cl)nc3sccn23)cc(C(=O)OC)c1
EC50 [9]: 10.6 µM (active)
EC50 [10]: 9.13 µM (active)
EC50 [11]: 12.3 µM (active)

CCCCCN1C=CC=C/C1=C\C=C(C#N)C#N
EC50 [1]: 30.3 µM (inconclusive)
EC50 [2]: > 300 µM (not active)

Cc1n[nH]c(NNC(=O)c2ccccc2)c1[N+](=O)[O-]
EC50 [1]: 15.2 µM (active)
EC50 [2]: 4.96 µM (active)

CCOC(=O)C1=C(CNCc2ccc(F)cc2)NC(=O)NC1c1cccc([N+](=O)[O-])c1 (stereo not drawn)
EC50 [6]: > 112 µM (not active)
EC50 [7]: > 112 µM (not active)

N#Cc1ccc(C(=O)Nc2nc(-c3cccs3)c(C(=O)C(F)(F)F)s2)cc1
AC50 [12]: 4.75 µM (active)

O=c1oc(Nc2ccc(F)cc2)nc2ccccc12
EC50 [6]: 8.06 µM (active)
EC50 [7]: 4.03 µM (active)

CC1CN(c2nc3ccccc3nc2C(C#N)C(=O)NC2CCCCC2)CC(C)O1 (stereo not drawn)
EC50 [1]: > 300 µM (not active)
EC50 [2]: > 300 µM (inconclusive)

COc1cc(OC)c(C2C(C#N)=C(N)OC3=C2C(=O)CC(C)(C)C3)cc1OC (stereo not drawn)
EC50 [1]: > 300 µM (not active)
EC50 [2]: > 300 µM (not active)

O=C(Cn1cc(C(=O)C(F)(F)F)c2ccccc21)NCc1ccco1
EC50 [6]: > 112 µM (not active)
EC50 [7]: > 112 µM (not active)

O=c1cnc2cncnc2n1Cc1ccccc1Cl
AC50 [13]: 15.8 µM (inconclusive)
AC50 [8]: 20 µM (inconclusive)
AC50 [14]: 20 µM (inconclusive)

COc1ccc(NC(=O)c2sc3nc(-c4cccnc4)ccc3c2N)cc1
EC50 [1]: 40.6 µM (inconclusive)
EC50 [2]: 4.79 µM (active)

COC(=O)C1CSc2[nH]c(=O)sc2C1c1ccccc1 (stereo not drawn)
EC50 [1]: 7.13 µM (active)
EC50 [2]: 7.46 µM (active)

COc1cccc(C(=O)NCC2CCN(c3ccc(S(=O)(=O)N4CCOCC4)cc3)CC2)c1
EC50 [1]: > 300 µM (not active)
EC50 [2]: > 300 µM (not active)

C/C=C(/C)C(=O)Nc1cccc(C2=NOC3(C2)C[C@H](C(N)=O)N(C(=O)COc2ccc(Cl)cc2)C3)c1 (stereo partly drawn)
EC50 [9]: 87.6 µM (active)
EC50 [10]: > 120 µM (not active)
EC50 [11]: > 120 µM (not active)

O=C(Nc1cccc(-c2nc3ccccc3o2)c1)c1ccc(N2C(=O)C3C4C=CC(C4)C3C2=O)cc1 (stereo not drawn)
EC50 [9]: > 120 µM (not active)
EC50 [10]: 9.98 µM (active)
EC50 [11]: 10.5 µM (active)

C=CCNc1nc(N)c([N+](=O)[O-])c(NC2CCCCC2)n1
EC50 [9]: 0.21 µM (active)
EC50 [10]: > 120 µM (not active)
EC50 [11]: 28.9 µM (active)

O=c1cnc2cnc(Oc3cccc(Cl)c3)nc2n1C[C@H]1CCCO1
AC50 [8]: 15.8 µM (inconclusive)
AC50 [15]: 39.8 µM (inconclusive)

COc1cccc(-c2cncnc2NCCc2c[nH]c3ccc(OC)cc23)c1
AC50 [8]: 0.1 µM (inconclusive)

c1ccc(C(c2ccccc2)N2CC[C@@]3(CCCNC3)C2)cc1
AC50 [8]: 31.6 µM (inconclusive)

O=C(CN1C(=O)c2cccc3cccc1c23)N1CCN(c2ccc(F)cc2)CC1
EC50 [6]: > 112 µM (not active)
EC50 [7]: > 112 µM (not active)

Cc1c(C(=O)N2CCCCC2)c(S(=O)(=O)N(C)Cc2ccccc2)c(C)n1C
EC50 [6]: > 112 µM (not active)
EC50 [7]: > 112 µM (not active)

COc1ccc2[nH]cc(CCNc3nc(-c4ccc(C(=O)N(C)C)cc4)nc4ccccc34)c2c1
AC50 [8]: 1 µM (inconclusive)
AC50 [14]: 20 µM (inconclusive)

CC(Sc1nnc(C(C)N(C)C)n1-c1ccc(Cl)cc1)C(=O)Nc1ccc2c(c1)OCO2 (stereo not drawn)
AC50 [8]: 15.8 µM (inconclusive)

CN(C)CCCN/C=C1\C(=O)NC(=O)N(CCc2ccc(F)cc2)C1=O
EC50 [1]: > 300 µM (not active)
EC50 [2]: > 300 µM (not active)

COCCNC(=O)CSc1ncnc2sccc12
AC50 [8]: 28.2 µM (inconclusive)

CCn1c(=O)c([N+](=O)[O-])c(NCCc2ccc(OC)c(OC)c2)c2ccccc21
EC50 [6]: > 112 µM (not active)
EC50 [7]: > 112 µM (not active)

CCCCc1ccc(Nc2nc(N3CCOCC3)nc(N3CCOCC3)n2)cc1
EC50 [6]: > 112 µM (not active)
EC50 [7]: > 112 µM (not active)

Cc1cc(C)n(C(=O)CCCCCCCCC(=O)n2nc(C)cc2C)n1
AC50 [13]: 15.8 µM (inconclusive)
AC50 [8]: 0.251 µM (inconclusive)

COc1cccc(-c2nc(C[S+]([O-])CC(=O)NCCc3ccc(C)cc3)c(C)o2)c1 (stereo not drawn)
EC50 [6]: > 112 µM (not active)
EC50 [7]: > 112 µM (not active)

COc1ccc(N2CCN(S(=O)(=O)c3c(C)nc4sccn4c3=O)CC2)cc1
EC50 [6]: > 112 µM (not active)
EC50 [7]: > 112 µM (not active)

O=C1CC(=O)C(n2cncn2)C(c2cccc(Cl)c2)C1 (stereo not drawn)
AC50 [8]: 25.1 µM (inconclusive)
AC50 [15]: 3.98 µM (inconclusive)

O=C(NCCCN1CCOCC1)C(=O)N/N=C/c1c2ccccc2cc2ccccc12
EC50 [9]: 13.9 µM (active)
EC50 [10]: 9.11 µM (active)
EC50 [11]: 12.2 µM (active)

COc1cccc(/C=N/Nc2nnc(C)n2N)c1OCc1ccccc1Cl
EC50 [9]: > 120 µM (not active)
EC50 [10]: > 120 µM (not active)
EC50 [11]: > 120 µM (not active)

Cc1ccc(C(=O)N/N=C/c2ccc(-c3cccc(C(F)(F)F)c3)o2)cn1
EC50 [9]: > 120 µM (not active)
EC50 [10]: 11.9 µM (active)
EC50 [11]: > 120 µM (not active)

COc1cccc(C(=O)Nc2ccc(-c3nnc(-c4ccco4)o3)cc2)c1
AC50 [8]: 1.41 µM (inconclusive)
AC50 [15]: 2.82 µM (inconclusive)
